In patent publication US20210045385A1, “PYRIDAZINONE-SUBSTITUTED KETOXIMES AS HERBICIDES” (FMC Corporation, priority 2018, published 2021):

Tests used:
Assay type in all cases: in vivo
[1] = tested on: ragweed (common ragweed, Ambrosia artemisiifolia); experiment: Test C preemergence, visual plant response rating; details: 1000 g ai/ha
Description: (§1) Seeds of plant species selected from barnyardgrass (Echinochloa crus-galli), kochia (Bassia scoparia), ragweed (common ragweed, Ambrosia artemisiifolia), Italian ryegrass (Lolium mutiflorum), foxtail, giant (giant foxtail, Setaria faberi), foxtail, green (green foxtail, Setaria viridis), and pigweed (Amaranthus retroflexus) were planted into a blend of loam soil and sand and treated preemergence with a directed soil spray using test chemicals formulated in anon-phytotoxic solvent mixture which included a surfactant.
(§2) At the same time, plants selected from these weed species and also wheat (Triticum aestivum), corn (Zea mays), blackgrass (Alopecurus myosuroides), and galium (catchweed bedstraw, Galium aparine) were planted in pots containing the same blend of loam soil and sand and treated with post emergence applications of test chemicals formulated in the same manner. Plants ranged in height from 2 to 10 cm and were in the one- to two-leaf stage for the postemergence treatment. Treated plants and untreated controls were maintained in a greenhouse for approximately 10 d, after which time all treated plants were compared to untreated controls and visually evaluated for injury. Plant response ratings, summarized in Table C, are based on a 0 to 100 scale where 0 is no effect and 100 is complete control. A dash (-)response means no test result.

[2] = tested on: pigweed (Amaranthus retroflexus); experiment: Test C preemergence, visual plant response rating; details: 1000 g ai/ha
Description: as §1, §2

[3] = tested on: Italian ryegrass (Lolium mutiflorum); experiment: Test C preemergence, visual plant response rating; details: 1000 g ai/ha
Description: as §1, §2

kochia (Bassia scoparia) [4] = experiment: Test C preemergence, visual plant response rating; details: 1000 g ai/ha
Description: as §1, §2

[5] = tested on: foxtail, giant (giant foxtail, Setaria faberi); experiment: Test C preemergence, visual plant response rating; details: 1000 g ai/ha
Description: as §1, §2

[6] = tested on: barnyardgrass (Echinochloa crus-galli); experiment: Test C preemergence, visual plant response rating; details: 1000 g ai/ha
Description: as §1, §2

[7] = tested on: ragweed (common ragweed, Ambrosia artemisiifolia); experiment: Test C postemergence, visual plant response rating; details: Test C, postemergence, 1000 g ai/ha
Description: as §1, §2

[8] = tested on: pigweed (Amaranthus retroflexus); experiment: Test C postemergence, visual plant response rating; details: Test C, postemergence, 1000 g ai/ha
Description: as §1, §2

[9] = tested on: Italian ryegrass (Lolium mutiflorum); experiment: Test C postemergence, visual plant response rating; details: Test C, postemergence, 1000 g ai/ha
Description: as §1, §2

[10] = tested on: galium (catchweed bedstraw, Galium aparine); experiment: Test C postemergence, visual plant response rating; details: Test C, postemergence, 1000 g ai/ha
Description: as §1, §2

kochia (Bassia scoparia) [11] = experiment: Test C postemergence, visual plant response rating; details: Test C, postemergence, 1000 g ai/ha
Description: as §1, §2

[12] = tested on: wheat (Triticum aestivum); experiment: Test C postemergence, visual plant response rating; details: Test C, postemergence, 1000 g ai/ha
Description: as §1, §2

[13] = tested on: foxtail, giant (giant foxtail, Setaria faberi); experiment: Test C postemergence, visual plant response rating; details: Test C, postemergence, 1000 g ai/ha
Description: as §1, §2

corn (Zea mays) [14] = experiment: Test C postemergence, visual plant response rating; details: Test C, postemergence, 1000 g ai/ha
Description: as §1, §2

[15] = tested on: barnyardgrass (Echinochloa crus-galli); experiment: Test C postemergence, visual plant response rating; details: Test C, postemergence, 1000 g ai/ha
Description: as §1, §2

[16] = tested on: blackgrass (Alopecurus myosuroides); experiment: Test C postemergence, visual plant response rating; details: Test C, postemergence, 1000 g ai/ha
Description: as §1, §2

[17] = tested on: ragweed (common ragweed, Ambrosia elatior); experiment: Test A postemergence, visual plant response rating; details: Postemergence, 125 g ai/ha; 0 to 100 scale (0 no effect, 100 complete control)
Description: as §1, with “(Kochia” for “(Bassia”, “elatior),” for “artemisiifolia),”, “multiflorum),” for “mutiflorum),”, “faberii),” for “faberi),”, “a non-phytotoxic” for “anon-phytotoxic”
as §2, with “postemergence” for “post emergence”, “days,” for “d,”, “A,” for “C,”, “(-) response” for “(-)response”

[18] = tested on: pigweed (Amaranthus retroflexus); experiment: Test A postemergence, visual plant response rating; details: Postemergence, 125 g ai/ha; 0 to 100 scale (0 no effect, 100 complete control)
Description: as §1, with “(Kochia” for “(Bassia”, “elatior),” for “artemisiifolia),”, “multiflorum),” for “mutiflorum),”, “faberii),” for “faberi),”, “a non-phytotoxic” for “anon-phytotoxic”
as §2, with “postemergence” for “post emergence”, “days,” for “d,”, “A,” for “C,”, “(-) response” for “(-)response”

[19] = tested on: Italian ryegrass (Lolium multiflorum); experiment: Test A postemergence, visual plant response rating; details: Postemergence, 125 g ai/ha; 0 to 100 scale (0 no effect, 100 complete control)
Description: as §1, with “(Kochia” for “(Bassia”, “elatior),” for “artemisiifolia),”, “multiflorum),” for “mutiflorum),”, “faberii),” for “faberi),”, “a non-phytotoxic” for “anon-phytotoxic”
as §2, with “postemergence” for “post emergence”, “days,” for “d,”, “A,” for “C,”, “(-) response” for “(-)response”

kochia (Kochia scoparia) [20] = experiment: Test A postemergence, visual plant response rating; details: Postemergence, 125 g ai/ha; 0 to 100 scale (0 no effect, 100 complete control)
Description: as §1, with “(Kochia” for “(Bassia”, “elatior),” for “artemisiifolia),”, “multiflorum),” for “mutiflorum),”, “faberii),” for “faberi),”, “a non-phytotoxic” for “anon-phytotoxic”
as §2, with “postemergence” for “post emergence”, “days,” for “d,”, “A,” for “C,”, “(-) response” for “(-)response”

[21] = tested on: galium (catchweed bedstraw, Galium aparine); experiment: Test A postemergence, visual plant response rating; details: Postemergence, 125 g ai/ha; 0 to 100 scale (0 no effect, 100 complete control)
Description: as §1, with “(Kochia” for “(Bassia”, “elatior),” for “artemisiifolia),”, “multiflorum),” for “mutiflorum),”, “faberii),” for “faberi),”, “a non-phytotoxic” for “anon-phytotoxic”
as §2, with “postemergence” for “post emergence”, “days,” for “d,”, “A,” for “C,”, “(-) response” for “(-)response”

[22] = tested on: wheat (Triticum aestivum); experiment: Test A postemergence, visual plant response rating; details: Postemergence, 125 g ai/ha; 0 to 100 scale (0 no effect, 100 complete control)
Description: as §1, with “(Kochia” for “(Bassia”, “elatior),” for “artemisiifolia),”, “multiflorum),” for “mutiflorum),”, “faberii),” for “faberi),”, “a non-phytotoxic” for “anon-phytotoxic”
as §2, with “postemergence” for “post emergence”, “days,” for “d,”, “A,” for “C,”, “(-) response” for “(-)response”

corn (Zea mays) [23] = experiment: Test A postemergence, visual plant response rating; details: Postemergence, 125 g ai/ha; 0 to 100 scale (0 no effect, 100 complete control)
Description: as §1, with “(Kochia” for “(Bassia”, “elatior),” for “artemisiifolia),”, “multiflorum),” for “mutiflorum),”, “faberii),” for “faberi),”, “a non-phytotoxic” for “anon-phytotoxic”
as §2, with “postemergence” for “post emergence”, “days,” for “d,”, “A,” for “C,”, “(-) response” for “(-)response”

[24] = tested on: foxtail, giant (giant foxtail, Setaria faberii); experiment: Test A postemergence, visual plant response rating; details: Postemergence, 125 g ai/ha; 0 to 100 scale (0 no effect, 100 complete control)
Description: as §1, with “(Kochia” for “(Bassia”, “elatior),” for “artemisiifolia),”, “multiflorum),” for “mutiflorum),”, “faberii),” for “faberi),”, “a non-phytotoxic” for “anon-phytotoxic”
as §2, with “postemergence” for “post emergence”, “days,” for “d,”, “A,” for “C,”, “(-) response” for “(-)response”

[25] = tested on: barnyardgrass (Echinochloa crus-galli); experiment: Test A postemergence, visual plant response rating; details: Postemergence, 125 g ai/ha; 0 to 100 scale (0 no effect, 100 complete control)
Description: as §1, with “(Kochia” for “(Bassia”, “elatior),” for “artemisiifolia),”, “multiflorum),” for “mutiflorum),”, “faberii),” for “faberi),”, “a non-phytotoxic” for “anon-phytotoxic”
as §2, with “postemergence” for “post emergence”, “days,” for “d,”, “A,” for “C,”, “(-) response” for “(-)response”

[26] = tested on: blackgrass (Alopecurus myosuroides); experiment: Test A postemergence, visual plant response rating; details: Postemergence, 125 g ai/ha; 0 to 100 scale (0 no effect, 100 complete control)
Description: as §1, with “(Kochia” for “(Bassia”, “elatior),” for “artemisiifolia),”, “multiflorum),” for “mutiflorum),”, “faberii),” for “faberi),”, “a non-phytotoxic” for “anon-phytotoxic”
as §2, with “postemergence” for “post emergence”, “days,” for “d,”, “A,” for “C,”, “(-) response” for “(-)response”

[27] = tested on: ragweed (common ragweed, Ambrosia elatior); experiment: Test A preemergence, visual plant response rating; details: 125 g ai/ha, preemergence; 0 to 100 scale, 0 no effect, 100 complete control
Description: as §1, with “(Kochia” for “(Bassia”, “elatior),” for “artemisiifolia),”, “multiflorum),” for “mutiflorum),”, “faberii),” for “faberi),”, “a non-phytotoxic” for “anon-phytotoxic”
as §2, with “postemergence” for “post emergence”, “days,” for “d,”, “A,” for “C,”, “(-) response” for “(-)response”

[28] = tested on: pigweed (Amaranthus retroflexus); experiment: Test A preemergence, visual plant response rating; details: 125 g ai/ha, preemergence; 0 to 100 scale, 0 no effect, 100 complete control
Description: as §1, with “(Kochia” for “(Bassia”, “elatior),” for “artemisiifolia),”, “multiflorum),” for “mutiflorum),”, “faberii),” for “faberi),”, “a non-phytotoxic” for “anon-phytotoxic”
as §2, with “postemergence” for “post emergence”, “days,” for “d,”, “A,” for “C,”, “(-) response” for “(-)response”

[29] = tested on: Italian ryegrass (Lolium multiflorum); experiment: Test A preemergence, visual plant response rating; details: 125 g ai/ha, preemergence; 0 to 100 scale, 0 no effect, 100 complete control
Description: as §1, with “(Kochia” for “(Bassia”, “elatior),” for “artemisiifolia),”, “multiflorum),” for “mutiflorum),”, “faberii),” for “faberi),”, “a non-phytotoxic” for “anon-phytotoxic”
as §2, with “postemergence” for “post emergence”, “days,” for “d,”, “A,” for “C,”, “(-) response” for “(-)response”

kochia (Kochia scoparia) [30] = experiment: Test A preemergence, visual plant response rating; details: 125 g ai/ha, preemergence; 0 to 100 scale, 0 no effect, 100 complete control
Description: as §1, with “(Kochia” for “(Bassia”, “elatior),” for “artemisiifolia),”, “multiflorum),” for “mutiflorum),”, “faberii),” for “faberi),”, “a non-phytotoxic” for “anon-phytotoxic”
as §2, with “postemergence” for “post emergence”, “days,” for “d,”, “A,” for “C,”, “(-) response” for “(-)response”

[31] = tested on: foxtail, giant (giant foxtail, Setaria faberii); experiment: Test A preemergence, visual plant response rating; details: 125 g ai/ha, preemergence; 0 to 100 scale, 0 no effect, 100 complete control
Description: as §1, with “(Kochia” for “(Bassia”, “elatior),” for “artemisiifolia),”, “multiflorum),” for “mutiflorum),”, “faberii),” for “faberi),”, “a non-phytotoxic” for “anon-phytotoxic”
as §2, with “postemergence” for “post emergence”, “days,” for “d,”, “A,” for “C,”, “(-) response” for “(-)response”

[32] = tested on: barnyardgrass (Echinochloa crus-galli); experiment: Test A preemergence, visual plant response rating; details: 125 g ai/ha, preemergence; 0 to 100 scale, 0 no effect, 100 complete control
Description: as §1, with “(Kochia” for “(Bassia”, “elatior),” for “artemisiifolia),”, “multiflorum),” for “mutiflorum),”, “faberii),” for “faberi),”, “a non-phytotoxic” for “anon-phytotoxic”
as §2, with “postemergence” for “post emergence”, “days,” for “d,”, “A,” for “C,”, “(-) response” for “(-)response”

SMILES	Ragweed plant response rating (0 to 100 scale) [1]	Pigweed plant response rating (0 to 100 scale) [2]	Ryegrass, Italian plant response rating (0 to 100 scale) [3]	Kochia plant response rating (0 to 100 scale) (kochia (Bassia scoparia) [4])	Foxtail, Giant plant response rating (0 to 100 scale) [5]	Barnyardgrass plant response rating (0 to 100 scale) [6]	Ragweed plant response rating (0 to 100 scale) [7]	Pigweed plant response rating (0 to 100 scale) [8]	Ryegrass, Italian plant response rating (0 to 100 scale) [9]	Galium plant response rating (0 to 100 scale) [10]	Kochia plant response rating (0 to 100 scale) (kochia (Bassia scoparia) [11])	Wheat plant response rating (0 to 100 scale) [12]	Foxtail, Giant plant response rating (0 to 100 scale) [13]	Corn plant response rating (0 to 100 scale) (corn (Zea mays) [14])	Barnyardgrass plant response rating (0 to 100 scale) [15]	Blackgrass plant response rating (0 to 100 scale) [16]	other results
CCO/N=C(/c1c(O)cnn(C)c1=O)c1cccc2ccccc12 [Compound 225]	40	80	0	10	60	0	70	60	0	90	10	0	20	0	10	20	–
CC(C)O/N=C(/c1c(O)cnn(C)c1=O)c1cccc2ccccc12 [Compound 223]	20	100	0	0	0	0	50	40	0	90	0	0	30	0	20	0	–
CO/N=C(\c1cc(C(F)(F)F)ccc1Cl)c1c(O)c(C)nn(C)c1=O [Compound 54]	–	–	–	–	–	–	–	–	–	–	–	–	–	–	–	–	Ragweed plant response rating [17]: 60; Pigweed plant response rating [18]: 60; Ryegrass, Italian plant response rating [19]: 40; Kochia plant response rating (kochia (Kochia scoparia) [20]): 50; Galium plant response rating [21]: 70; Wheat plant response rating [22]: 30; Corn plant response rating (corn (Zea mays) [23]): 10; Foxtail, Giant plant response rating [24]: 40; Barnyardgrass plant response rating [25]: 30; Blackgrass plant response rating [26]: 40; Ragweed plant response rating [27]: 70; Pigweed plant response rating [28]: 80; Ryegrass, Italian plant response rating [29]: 70; Kochia plant response rating (kochia (Kochia scoparia) [30]): 0; Foxtail, Giant plant response rating [31]: 40; Barnyardgrass plant response rating [32]: 40
CO/N=C(/c1c(O)cnn(C)c1=O)c1cccc2ccccc12 [Compound 237]	20	90	0	30	60	0	30	90	10	100	80	0	0	0	0	10	–
CCO/N=C(\c1c(O)cnn(C)c1=O)c1cccc2ccccc12 [Compound 224]	70	100	0	20	80	10	50	50	0	90	0	0	50	0	10	10	–
CO/N=C(\c1c(O)cnn(C)c1=O)c1cccc2ccccc12 [Compound 238]	90	100	20	30	40	0	30	90	0	90	80	0	40	0	20	20	–
